Test results: patent US3950379A, “2-Cyano-diphenyl ethers” (Rohm and Haas Company, priority 1974, dated 1976)

Legend:
Type in all cases: in vivo
Monocots [1] = test: Herbicidal activity, preemergence, monocot weeds in flats (% control); settings: pre-emergence, 336 h, about 2 weeks after application, percent of plants killed; for activity at 11208.5 g/ha: monocots (4 species, average), 10 lb./A.; for activity at 4483.4 g/ha / activity at 2241.7 g/ha: monocots (10 species, average); for activity at 4483.4 g/ha: 4 lb./A.; for activity at 2241.7 g/ha: 2 lb./A.
Description: (§1) Using the procedure described below, diphenyl ethers were evaluated for control of the following weeds: At 10 pounds per acre: […]
(§2) barnyardgrass (Echinochloa crusgalli) crabgrass (Digitaria spp.) nutsedge (Cyperus esculentus)
(§3) At 2 and 4 pounds per acre: […]
(§4) downy brome (Bromus tectorum) foxtail (Setaria faberii)
(§5) Johnsongrass (Sorghum halepense) […]
(§6) quackgrass (Agropyron repens) ryegrass (Lolium perenne) […]
(§7) yellow millet (Panicum miliaceum)
(§8) The following test procedure is employed. Seeds of selected crops and weeds are planted in soil in flats. For preemergence tests, the flats are treated with the test compound immediately after the planting. For post-emergence tests, the seeds are allowed to germinate, and after 2 weeks the flats are treated with the test compound. The compound to be evaluated is dissolved in acetone, diluted with water, and sprayed over the flats using a carrier volume equivalent to 50 gallons per acre at the rate of application (pounds per acre, lb/A.) specified in the tables. About 2 weeks after the application of the test compound, the state of growth of the plant is observed and the phytotoxic effect of the compound is evaluated. Table II gives the average percent control achieved by the test compounds in terms of the percent of the plants which are killed by the compounds.

Dicots [2] = test: Herbicidal activity, preemergence, dicot weeds in flats (% control); settings: pre-emergence, 336 h, dicots (4 species, average), 10 lb./A., about 2 weeks after application, percent of plants killed
Description: as §1
(§9) bindweed (Convolvulus arvensis) curly dock (Rumex crispus) velvetleaf (Abutilon theophrasti) wild mustard (Brassica haber)
as §3
(§10) cocklebur (Xanthium pensylvanicum) […]
(§11) lambsquarters (Chenopodium album) morningglory (Ipomoea purpurea) pigweed (Amaranthus retroflexus) smartweed (Polygonum pensylvanicum) […]
(§12) wild carrot (Daucus carota)
as §8

Monocots [3] = test: Herbicidal activity, postemergence, monocot weeds in flats (% control); settings: post-emergence, 336 h, about 2 weeks after application, percent of plants killed; for activity at 11208.5 g/ha: monocots (4 species, average), 10 lb./A.; for activity at 4483.4 g/ha / activity at 2241.7 g/ha: monocots (10 species, average); for activity at 4483.4 g/ha: 4 lb./A.; for activity at 2241.7 g/ha: 2 lb./A.
Description: as §1, §2, §3, §4, §5, §6, §7, §8

Dicots [4] = test: Herbicidal activity, postemergence, dicot weeds in flats (% control); settings: post-emergence, 336 h, dicots (4 species, average), 10 lb./A., about 2 weeks after application, percent of plants killed
Description: as §1, §9, §3, §10, §11, §12, §8

Dicots [5] = test: Herbicidal activity, preemergence, dicot weeds in flats (% control); settings: pre-emergence, 336 h, dicots (10 species, average), about 2 weeks after application, percent of plants killed; for activity at 4483.4 g/ha: 4 lb./A.; for activity at 2241.7 g/ha: 2 lb./A.
Dicots [6] = test: Herbicidal activity, postemergence, dicot weeds in flats (% control); settings: post-emergence, 336 h, dicots (10 species, average), about 2 weeks after application, percent of plants killed; for activity at 4483.4 g/ha: 4 lb./A.; for activity at 2241.7 g/ha: 2 lb./A.

Q: Which activity at 11208.5 g/ha (Monocots [1]) does the source give for `N#Cc1cc(F)ccc1Oc1ccc([N+](=O)[O-])cc1` [Example 1, 2-cyano-4-fluoro-4'-nitrodiphenyl ether] here?
A: The activity at 11208.5 g/ha was 77%.

Q: What about the activity at 4483.4 g/ha (Monocots [1]) of the same molecule?
A: Its activity at 4483.4 g/ha is 47%.

Q: And the activity at 11208.5 g/ha (Dicots [2])?
A: The activity at 11208.5 g/ha was 77%.

Q: What about the activity at 11208.5 g/ha (Monocots [3]) of the same molecule?
A: Its activity at 11208.5 g/ha is 95%.

Q: And the activity at 4483.4 g/ha (Monocots [3])?
A: The activity at 4483.4 g/ha was 44%.

Q: And the activity at 11208.5 g/ha (Dicots [4])?
A: The activity at 11208.5 g/ha was 100%.

Q: What about the activity at 4483.4 g/ha (Dicots [5]) of the same molecule?
A: Its activity at 4483.4 g/ha is 51%.

Q: And the activity at 4483.4 g/ha (Dicots [6])?
A: The activity at 4483.4 g/ha was 58%.

Q: With `N#Cc1cc(Cl)ccc1Oc1ccc([N+](=O)[O-])cc1` [Example 2] as the molecule, how does the activity at 11208.5 g/ha (Monocots [1]) read?
A: Its activity at 11208.5 g/ha is 81%.

Q: And the activity at 4483.4 g/ha (Monocots [1])?
A: Its activity at 4483.4 g/ha is 49%.

Q: And the activity at 11208.5 g/ha (Dicots [2])?
A: Its activity at 11208.5 g/ha is 95%.

Q: And the activity at 11208.5 g/ha (Monocots [3])?
A: The activity at 11208.5 g/ha was 95%.

Q: And the activity at 4483.4 g/ha (Monocots [3])?
A: The activity at 4483.4 g/ha was 44%.

Q: And the activity at 11208.5 g/ha (Dicots [4])?
A: The activity at 11208.5 g/ha was 100%.

Q: What about the activity at 4483.4 g/ha (Dicots [5]) of the same molecule?
A: The activity at 4483.4 g/ha was 55%.

Q: What about the activity at 4483.4 g/ha (Dicots [6]) of the same molecule?
A: The activity at 4483.4 g/ha was 64%.

Q: Which results are given for `N#Cc1cc(C(F)(F)F)ccc1Oc1ccc(Br)cc1` [Example 4, 2-cyano-α, α, α-trifluoro-p-tolyl-4-bromophenyl ether]?
A: activity at 11208.5 g/ha (Monocots [1]): 5%; activity at 2241.7 g/ha (Monocots [1]): 51%; activity at 4483.4 g/ha (Monocots [1]): 67%; activity at 11208.5 g/ha (Dicots [2]): 0%; activity at 11208.5 g/ha (Monocots [3]): 22%; activity at 2241.7 g/ha (Monocots [3]): 34%; activity at 4483.4 g/ha (Monocots [3]): 34%; activity at 11208.5 g/ha (Dicots [4]): 85%; activity at 2241.7 g/ha (Dicots [5]): 34%; activity at 4483.4 g/ha (Dicots [5]): 37%; activity at 2241.7 g/ha (Dicots [6]): 50%; activity at 4483.4 g/ha (Dicots [6]): 56%

Q: Which activity at 11208.5 g/ha (Monocots [1]) does the source give for `N#Cc1ccc(Oc2ccc(C(F)(F)F)cc2C#N)cc1` [Example 5] here?
A: Its activity at 11208.5 g/ha is 70%.

Q: What about the activity at 2241.7 g/ha (Monocots [1]) of the same molecule?
A: Its activity at 2241.7 g/ha is 42%.

Q: And the activity at 4483.4 g/ha (Monocots [1])?
A: Its activity at 4483.4 g/ha is 44%.

Q: And the activity at 11208.5 g/ha (Dicots [2])?
A: The activity at 11208.5 g/ha was 77%.

Q: What about the activity at 11208.5 g/ha (Monocots [3]) of the same molecule?
A: The activity at 11208.5 g/ha was 25%.

Q: What about the activity at 2241.7 g/ha (Monocots [3]) of the same molecule?
A: The activity at 2241.7 g/ha was 48%.

Q: And the activity at 4483.4 g/ha (Monocots [3])?
A: Its activity at 4483.4 g/ha is 11%.

Q: What about the activity at 11208.5 g/ha (Dicots [4]) of the same molecule?
A: The activity at 11208.5 g/ha was 65%.

Q: What about the activity at 2241.7 g/ha (Dicots [5]) of the same molecule?
A: Its activity at 2241.7 g/ha is 47%.

Q: What about the activity at 4483.4 g/ha (Dicots [5]) of the same molecule?
A: Its activity at 4483.4 g/ha is 50%.

Q: And the activity at 2241.7 g/ha (Dicots [6])?
A: Its activity at 2241.7 g/ha is 59%.

Q: What about the activity at 4483.4 g/ha (Dicots [6]) of the same molecule?
A: Its activity at 4483.4 g/ha is 41%.

Q: How did the activity at 11208.5 g/ha (Monocots [1]) turn out when `N#Cc1cc(C(F)(F)F)ccc1Oc1ccc(Cl)c(Cl)c1` [Example 7] was run?
A: The activity at 11208.5 g/ha was 0%.

Q: And the activity at 2241.7 g/ha (Monocots [1])?
A: Its activity at 2241.7 g/ha is 56%.

Q: And the activity at 4483.4 g/ha (Monocots [1])?
A: The activity at 4483.4 g/ha was 66%.

Q: What about the activity at 11208.5 g/ha (Dicots [2]) of the same molecule?
A: The activity at 11208.5 g/ha was 0%.

Q: What about the activity at 11208.5 g/ha (Monocots [3]) of the same molecule?
A: The activity at 11208.5 g/ha was 40%.

Q: And the activity at 2241.7 g/ha (Monocots [3])?
A: Its activity at 2241.7 g/ha is 36%.

Q: What about the activity at 4483.4 g/ha (Monocots [3]) of the same molecule?
A: Its activity at 4483.4 g/ha is 36%.

Q: What about the activity at 11208.5 g/ha (Dicots [4]) of the same molecule?
A: Its activity at 11208.5 g/ha is 77%.

Q: And the activity at 2241.7 g/ha (Dicots [5])?
A: Its activity at 2241.7 g/ha is 65%.

Q: And the activity at 4483.4 g/ha (Dicots [5])?
A: Its activity at 4483.4 g/ha is 41%.

Q: And the activity at 2241.7 g/ha (Dicots [6])?
A: The activity at 2241.7 g/ha was 55%.

Q: And the activity at 4483.4 g/ha (Dicots [6])?
A: Its activity at 4483.4 g/ha is 64%.

Q: For `N#Cc1cc(C(F)(F)F)ccc1Oc1ccc(C(F)(F)F)cc1` [Example 6, 2-cyano-α, α, α-trifluoro-p-tolyl-α,α,α-trifluoro-p-tolyl ether], which activity at 11208.5 g/ha (Monocots [1]) is on record?
A: The activity at 11208.5 g/ha was 0%.

Q: And the activity at 2241.7 g/ha (Monocots [1])?
A: The activity at 2241.7 g/ha was 34%.

Q: What about the activity at 11208.5 g/ha (Dicots [2]) of the same molecule?
A: The activity at 11208.5 g/ha was 10%.

Q: And the activity at 11208.5 g/ha (Monocots [3])?
A: The activity at 11208.5 g/ha was 70%.

Q: What about the activity at 2241.7 g/ha (Monocots [3]) of the same molecule?
A: The activity at 2241.7 g/ha was 34%.

Q: What about the activity at 11208.5 g/ha (Dicots [4]) of the same molecule?
A: Its activity at 11208.5 g/ha is 75%.

Q: And the activity at 2241.7 g/ha (Dicots [5])?
A: The activity at 2241.7 g/ha was 5%.

Q: What about the activity at 2241.7 g/ha (Dicots [6]) of the same molecule?
A: The activity at 2241.7 g/ha was 49%.

Q: Which activity at 11208.5 g/ha (Monocots [1]) does the source give for `N#Cc1cc(C(F)(F)F)ccc1Oc1ccc(Cl)cc1` [Example 3, 2-cyano-α,α,α-trifluoro-p-tolyl-4-chlorophenylether] here?
A: Its activity at 11208.5 g/ha is 10%.

Q: What about the activity at 2241.7 g/ha (Monocots [1]) of the same molecule?
A: The activity at 2241.7 g/ha was 65%.

Q: And the activity at 4483.4 g/ha (Monocots [1])?
A: The activity at 4483.4 g/ha was 59%.

Q: What about the activity at 11208.5 g/ha (Dicots [2]) of the same molecule?
A: The activity at 11208.5 g/ha was 10%.

Q: And the activity at 11208.5 g/ha (Monocots [3])?
A: The activity at 11208.5 g/ha was 17%.

Q: And the activity at 2241.7 g/ha (Monocots [3])?
A: The activity at 2241.7 g/ha was 27%.

Q: And the activity at 4483.4 g/ha (Monocots [3])?
A: The activity at 4483.4 g/ha was 9%.

Q: And the activity at 11208.5 g/ha (Dicots [4])?
A: Its activity at 11208.5 g/ha is 75%.

Q: And the activity at 2241.7 g/ha (Dicots [5])?
A: The activity at 2241.7 g/ha was 61%.

Q: What about the activity at 4483.4 g/ha (Dicots [5]) of the same molecule?
A: Its activity at 4483.4 g/ha is 40%.

Q: What about the activity at 2241.7 g/ha (Dicots [6]) of the same molecule?
A: The activity at 2241.7 g/ha was 50%.

Q: What about the activity at 4483.4 g/ha (Dicots [6]) of the same molecule?
A: Its activity at 4483.4 g/ha is 38%.
